Data: patent US20240133877A1, “PRODUCTS AND METHODS FOR MONITORING ADHERENCE TO NUCLEOSIDE REVERSE TRANSCRIPTASE INHIBITOR THERAPY” (priority 2017, published 2024)
Several values for one entry are separate records, joined by “and”; a condition that tells them apart may be missing. Equal values may be shown once.

Assays:
[1] = system: pAb 313; assay: Cross reactivity of compounds spiked in buffer with pAb 313; type: binding, rabbit; settings: compound spiked in buffer
Procedure: (§1) To identify which compounds were causing cross reactivity, potentially cross-reactive compounds (compounds with similar chemical structure to TFV) were spiked in buffer and tested with the pAbs. We tested 11 compounds, and their percent cross reactivity was calculated for each of the substances in Table 3 to each antibody.

[2] = system: pAb 312; assay: Cross reactivity of compounds spiked in buffer with pAb 312; type: binding, rabbit; settings: compound spiked in buffer
Procedure: as §1

[3] = Urine and plasma TFV levels by LC-MS/MS in participants taking TAF; type: in vivo, human
Procedure: Blood and urine samples were collected from 3 cohorts of patients: (1) 10 HIV positive participants with suppressed virus on a TAF-based regimen, (2) 10 HIV- participants administered 1 dose of FTC/TAF followed by urine and plasma sampling for 7 days starting 1-3 hours post-dose, and (3) 10 HIV- participants administered 7 daily doses of FTC/TAF followed by urine and plasma sampling for 10 days starting 1-3 hours after the last dose. Samples were analyzed using liquid chromatography-tandem mass spectrometry (LC-MS/MS) with high sensitivity and specificity for TFV. Samples from cohort 2 were compared to a historical cohort administered one dose of FTC/TD F.

[4] = system: anti-TFV antibodies conjugated to colloidal gold; assay: Negative readout lateral flow assay, TFV-DP in whole blood; type: binding; parameters: Visual Read Results / Test Line Visual Read Results: scale not given here; settings: for TFV-DP conversion to TFV: phosphatase 30 minutes; for Visual Read Results: WB with phosphatase
Procedure: […] Samples were diluted by 1:10 or 1:2 and loaded onto negative readout lateral flow assays. Visual reads were made at 10- and 15-minute time points.
Samples were loaded onto negative readout lateral flow assays. Visual reads were made at 10- and 15-minute time points. Results are shown in FIGS. 11A and 11B and Table 10.

[5] = system: anti-TFV monoclonal antibody-HRP conjugates; assay: Whole-blood TFV-DP ELISA with phosphatase; type: binding; settings: for OD Value: replicates
Procedure: ELISA plates and reagents were equilibrated at room temperature. 50 μL of TFV-DP standard were plated onto a dilution plate in triplicate to generate a standard curve. TFV-DP standards were 250, 100, 50, 25, 10, 5, and 1 ng/mL, along with a blank. 50 μL of whole blood samples were added in duplicate or triplicate.
[…] 25 μL of conjugate solution containing anti-TFV monoclonal antibody-HRP conjugates was added to each well.
The dilution plate was covered and incubated at 25° C. for 30 minutes with shaking at 300-600 rpm. After incubation, the total volume of the dilution plate wells was transferred to an ELISA plate pre-coated with tenofovir-BSA conjugate (TFV-BSA). The ELISA plate was covered and incubated at 25° C. for 30 minutes with shaking at 300-600 rpm. The ELISA plate was washed with 350 μL per well of wash buffer for a total of 6 cycles, with a final aspirate.
100 μL of TMB substrate was added to each well. The ELISA plate was incubated in the dark at 25° C. for 30 minutes. 100 μL of stop solution was added to each well to quench the reactions. Absorbance was measured at 450 (primary) and 630 (reference) nm wavelengths within 15 minutes of quenching the reactions. OD was calculated by subtracting the reference absorbance from the primary absorbance. A standard curve was generated using a 4-parameter logistic regression or a 5-parameter logistic regression. The percent inhibition was calculated using the following formula: […]

[6] = system: anti-TFV antibodies conjugated to colloidal gold; assay: Negative readout lateral flow assay, TFV-DP in PBS; type: binding
Excerpt: […] Samples were loaded onto negative readout lateral flow assays. Lateral flow assays had anti-TFV antibodies conjugated to colloidal gold at the conjugate pad and TFV derivates striped at the test line. Visual reads were made at 10- and 15-minute time points.

[7] = red blood cells and dried blood spots; cited from earlier work
[8] = HIV-positive participants on TAF-based regimen (Cohort 1)

Nc1ncnc2c1ncn2[C@H]1C[C@H](O)[C@@H](COP(=O)(O)OP(=O)(O)OP(=O)(O)O)O1 [2′ Deoxyadenosine 5′ Triphosphate]
Cross Reactivity of 313 (vs TFV standard) [1]: None
Cross Reactivity of 312 (vs TFV standard) [2]: None

Nc1nc2c(ncn2[C@H]2C[C@H](O)[C@@H](COP(=O)(O)OP(=O)(O)OP(=O)(O)O)O2)c(=O)[nH]1 [2′Deoxyguanosine 5′ Triphosphate]
Cross Reactivity of 313 (vs TFV standard) [1]: None
Cross Reactivity of 312 (vs TFV standard) [2]: None

Nc1ncnc2c1ncn2CCOCP(=O)(O)O [Adefovir]
Cross Reactivity of 313 (vs TFV standard) [1]: Reactive (0.1%)
Cross Reactivity of 312 (vs TFV standard) [2]: Reactive (0.1%)

Nc1ncnc2c1ncn2[C@@H]1O[C@H](CO)[C@@H](OP(=O)(O)O)[C@H]1O [Adenosine 3′ Monophosphate]
Cross Reactivity of 313 (vs TFV standard) [1]: Reactive (0.1%)
Cross Reactivity of 312 (vs TFV standard) [2]: Reactive (0.1%)

Nc1ncnc2c1ncn2[C@@H]1O[C@H](COP(=O)(O)O)[C@@H](O)[C@H]1O.O [Adenosine 5′ Monophosphate Monohydrate]
Cross Reactivity of 313 (vs TFV standard) [1]: None
Cross Reactivity of 312 (vs TFV standard) [2]: None

Nc1ncnc2c1ncn2[C@@H]1O[C@H](COP(=O)([O-])OP(=O)([O-])OP(=O)(O)O)[C@@H](O)[C@H]1O.[Na+].[Na+] [Adenosine 5′ Triphosphate Disodium]
Cross Reactivity of 313 (vs TFV standard) [1]: None
Cross Reactivity of 312 (vs TFV standard) [2]: None

Nc1ncnc2c1ncn2[C@@H]1O[C@H](CO)[C@@H](O)[C@H]1O [Adenosine]
Cross Reactivity of 313 (vs TFV standard) [1]: Reactive (0.1%)
Cross Reactivity of 312 (vs TFV standard) [2]: None

Nc1ccn(C[C@@H](CO)OCP(=O)(O)O)c(=O)n1 [Cidofovir Hydrate]
Cross Reactivity of 313 (vs TFV standard) [1]: Reactive (5%)
Cross Reactivity of 312 (vs TFV standard) [2]: None

Nc1nc2c(ncn2[C@@H]2O[C@H](COP(=O)([O-])[O-])[C@@H](O)[C@H]2O)c(=O)[nH]1.[Na+].[Na+] [Guanosine 5′ Monophosphate Disodium]
Cross Reactivity of 313 (vs TFV standard) [1]: None
Cross Reactivity of 312 (vs TFV standard) [2]: None

CNc1ncnc2c1ncn2[C@@H]1O[C@H](COP(=O)(O)O)[C@@H](O)[C@H]1O [N6 Methyladenosine 5′ Monophosphate]
Cross Reactivity of 313 (vs TFV standard) [1]: None
Cross Reactivity of 312 (vs TFV standard) [2]: Reactive (0.1%)

CNc1ncnc2c1ncn2[C@@H]1O[C@H](CO)[C@@H](O)[C@H]1O [N6 Methyladenosine]
Cross Reactivity of 313 (vs TFV standard) [1]: None
Cross Reactivity of 312 (vs TFV standard) [2]: None

C[C@H](Cn1cnc2c(N)ncnc21)OCP(=O)(O)O [TFV, tenofovir]
urine TFV concentration ([3]; 7 consecutive doses FTC/TAF, 1-3 hours after discontinuation of dosing): > 1000 ng/mL
urine TFV level ([3]; 7 consecutive doses FTC/TAF, up to 7 days post discontinuation, in 8 out of 10 participants): > 100 ng/mL
TFV concentration higher in urine than plasma ([3]; HIV-positive participants on TAF-based regimen): 2 logs
plasma TFV concentration [3, 8]: 10 ng/mL
urine TFV concentration [3, 8]: 1000 ng/mL
plasma TFV concentration ([3]; both HIV-negative cohorts (FTC/TAF), all time points): ≤ 10 ng/mL
concentration at 144 h ([3]; human, urine, oral, single dose FTC/TAF, for 6 days, in 8 of 10 participants, read-out: urine TFV concentration remaining): > 0.1 µg/mL
persistence of TFV in urine at detectable concentrations ([3]; patients taking FTC/TAF): at least 7 days
urine TFV concentrations after FTC/TAF versus historical cohort administered FTC/TDF ([3]; single dose): comparable
urine TFV concentration ([3]; single dose FTC/TAF, HIV- subjects, 1-3 hours post-dose): 100 to 1000 ng/mL

C[C@H](Cn1cnc2c(N)ncnc21)OCP(=O)(O)OP(=O)(O)OP(=O)(O)O [TFV-DP, tenofovir diphosphate]
TFV-DP conversion to TFV ([4]; WB 975 and 325 ng/mL, diluted 1:10 or 1:2): Conversion of TFV-DP to TFV was observed
TFV-DP conversion to TFV ([4]; WB 975 and 325 ng/mL, no further dilution): Conversion of TFV-DP to TFV was observed
TFV-DP conversion to TFV ([4]; WB 1000-12000 ng/mL, diluted 1:10): Conversion of TFV-DP to TFV was observed
Test Line Visual Read Results ([4]; WB diluted 1:10, 1000 ng/ml, 10 minutes): 7
Test Line Visual Read Results ([4]; WB diluted 1:10, 1000 ng/ml, 15 minutes): 7
Test Line Visual Read Results ([4]; WB diluted 1:10, 2000 ng/ml, 10 minutes): 7
Test Line Visual Read Results ([4]; WB diluted 1:10, 2000 ng/ml, 15 minutes): 7
Test Line Visual Read Results ([4]; WB diluted 1:10, 3000 ng/ml, 10 minutes): 7
Test Line Visual Read Results ([4]; WB diluted 1:10, 3000 ng/ml, 15 minutes): 7
Test Line Visual Read Results ([4]; WB diluted 1:10, 3250 ng/ml, 10 minutes): 7
Test Line Visual Read Results ([4]; WB diluted 1:10, 3250 ng/ml, 15 minutes): 7
Test Line Visual Read Results ([4]; WB diluted 1:10, 4000 ng/ml, 10 minutes): 6
Test Line Visual Read Results ([4]; WB diluted 1:10, 4000 ng/ml, 15 minutes): 6
Test Line Visual Read Results ([4]; WB diluted 1:10, 5000 ng/ml, 10 minutes): 5
Test Line Visual Read Results ([4]; WB diluted 1:10, 5000 ng/ml, 15 minutes): 5
Test Line Visual Read Results ([4]; WB diluted 1:10, 6000 ng/ml, 10 minutes): 5
Test Line Visual Read Results ([4]; WB diluted 1:10, 6000 ng/ml, 15 minutes): 5
Test Line Visual Read Results ([4]; WB diluted 1:10, 7000 ng/ml, 10 minutes): 5
Test Line Visual Read Results ([4]; WB diluted 1:10, 7000 ng/ml, 15 minutes): 5
Test Line Visual Read Results ([4]; WB diluted 1:10, 8000 ng/ml, 10 minutes): 5
Test Line Visual Read Results ([4]; WB diluted 1:10, 8000 ng/ml, 15 minutes): 5
Test Line Visual Read Results ([4]; WB diluted 1:10, 9000 ng/ml, 10 minutes): 4
Test Line Visual Read Results ([4]; WB diluted 1:10, 9000 ng/ml, 15 minutes): 4
Test Line Visual Read Results ([4]; WB diluted 1:10, 9750 ng/ml, 10 minutes): 4
Test Line Visual Read Results ([4]; WB diluted 1:10, 9750 ng/ml, 15 minutes): 4
Test Line Visual Read Results ([4]; WB diluted 1:10, 10000 ng/ml, 10 minutes): 4
Test Line Visual Read Results ([4]; WB diluted 1:10, 10000 ng/ml, 15 minutes): 4
Test Line Visual Read Results ([4]; WB diluted 1:10, 11000 ng/ml, 10 minutes): 4
Test Line Visual Read Results ([4]; WB diluted 1:10, 11000 ng/ml, 15 minutes): 4
Test Line Visual Read Results ([4]; WB diluted 1:10, 12000 ng/ml, 10 minutes): 3
Test Line Visual Read Results ([4]; WB diluted 1:10, 12000 ng/ml, 15 minutes): 3
Visual Read Results ([4]; diluted 1:10 or 1:2, 325 ng/ml, 10 minutes): 6
Visual Read Results ([4]; diluted 1:10 or 1:2, 325 ng/ml, 15 minutes): 6
Visual Read Results ([4]; diluted 1:10 or 1:2, 975 ng/ml, 10 minutes): 4
Visual Read Results ([4]; diluted 1:10 or 1:2, 975 ng/ml, 15 minutes): 4
Visual Read Results ([4]; no further dilution (Table 10), 325 ng/ml, 10 minutes): 3/4
Visual Read Results ([4]; no further dilution (Table 10), 325 ng/ml, 15 minutes): 3/4
Visual Read Results ([4]; no further dilution (Table 10), 975 ng/ml, 10 minutes): 0
Visual Read Results ([4]; no further dilution (Table 10), 975 ng/ml, 15 minutes): 0
% Inhibition ([5]; No Phosphatase): 33.05%
OD Average ([5]; No Phosphatase): 1.0986
OD Value ([5]; No Phosphatase): 1.088 and 1.2148 and 1.2340 and 1.1083
% Inhibition ([5]; Phosphatase): 76.63%
OD Average ([5]; Phosphatase): 0.3835
OD Value ([5]; Phosphatase): 0.3853 and 0.3923 and 0.3798 and 0.3766
Visual Read Results (Enzyme Present) ([6]; 325 ng/mL, 10 minutes): 5
Visual Read Results (No Enzyme Present) ([6]; 325 ng/mL, 10 minutes): 8
Visual Read Results (Enzyme Present) ([6]; 325 ng/mL, 15 minutes): 5/6
Visual Read Results (No Enzyme Present) ([6]; 325 ng/mL, 15 minutes): 8
Visual Read Results (Enzyme Present) ([6]; 1300 ng/mL, 10 minutes): 3
Visual Read Results (No Enzyme Present) ([6]; 1300 ng/mL, 10 minutes): 7
Visual Read Results (Enzyme Present) ([6]; 1300 ng/mL, 15 minutes): 3
Visual Read Results (No Enzyme Present) ([6]; 1300 ng/mL, 15 minutes): 7
Visual Read Results (Enzyme Present) ([6]; 3250 ng/mL, 10 minutes): 0/1
Visual Read Results (No Enzyme Present) ([6]; 3250 ng/mL, 10 minutes): 6
Visual Read Results (Enzyme Present) ([6]; 3250 ng/mL, 15 minutes): 0/1
Visual Read Results (No Enzyme Present) ([6]; 3250 ng/mL, 15 minutes): 6
TFV-DP conversion to TFV ([6]; phosphatase from sweet potato extract, 30 minutes): Conversion of TFV-DP to TFV was observed
TFV-DP conversion to TFV ([6]; without phosphatase treatment): No conversion of TFV-DP to TFV was observed
accumulation from the first dose to steady state [7]: 25 fold
half-life [7]: 17 days
